Reference: patent US10745397B2, “1-Substituted 1,2,3,4-tetrahydro-1,7-naphthyridin-8-amine derivatives and their use as EP4 receptor antagonists” (TAKEDA PHARMACEUTICAL COMPANY LIMITED, priority 2015, dated 2020)

Columns and labels:
human EP4 receptor = target: T1, human EP4 receptor (Homo sapiens, UniProt P35408); test: hEP4 radioligand binding assay ([3H] PGE2 competitive binding, membrane fractions); settings: 300 nM compound; 1 nM [3H] PGE2
T1 construct: expressed in transfected cells; host or cells: FreeStyle293 (HEK293F) cells, transient transfection with pcDNA3.1(+), total membrane fraction
Text: The full-length coding sequences for human EP1 (NM_000955), human EP2 (NM_000956), human EP3 (NM_198717) and human EP4 (NM_000958) were cloned into pcDNA3.1(+) vector (Life Technologies, CA, USA). In order to prepare overexpressed EP 1-4 membrane in Freestyle293 cells (Life Technologies, CA, USA), the pcDNA3.1(+) vector encoding a cDNA of the relevant gene was transiently transfected into FreeStyle293 cells using 293Fectin (Life Technologies, CA, USA) according to the manufacturer instruction manual. After 2 days, cultured cells were centrifuged (1,000×g, 10 min, 4° C.) and pellets homogenized by a probe sonicator (Sonics vibracell, Sonics and Materials Inc., USA; 31% Amp, 5 sec pulse, Imin interval, 4 cycles) in ice-cold 50 mM Tris-HCl buffer (pH 7.5 at 25° C.) containing 0.5 mM EDTA, 250 mM Sucrose and 10 mM MgCl2. Cell homogenates were centrifuged (890×g, 10 min, 4° C.), and the supernatant was recovered. Total membrane fractions were isolated by ultracentrifugation (140,000×g, 60 min, 4° C.). Pellets were re-suspended in the same buffer, and stored at −80° C. until use. The protein concentration in homogenate was determined with the BCA Protein Assay Kit (Pierce Biotechnology, Inc., IL, USA) according to the manufacturer protocol.
The binding affinity of the compounds was evaluated using a competitive radioligand binding assay which measured the specific binding of [3H] PGE2 to the human EP4 receptor. Briefly, varying concentrations of NCEs were incubated with cell membrane fractions generated HEK293F cells transiently transfected with human EP4 receptor as described above. Each reaction consisted of 10 μg membrane protein and NCE in 50 mM Tris-HCl, pH-6.0 by NaOH, 10 mM MgCl2 and 0.5 mM EDTA assay buffer. Radioligand, [3H] PGE2 (American Radiochemicals Inc. Specific Activity 180 Ci/mmol), at a final of 1 nM was added to each reaction where the final assay volume was 200 μL and concentration of DMSO was adjusted to 1%. Appropriate controls included total binding in the assay (vehicle control) and control for non-specific binding. Non-specific binding was evaluated by incubating the hEP4 protein with 10 μM unlabeled PGE2 under the same assay conditions as NCEs. The reaction was incubated at room temperature for 2 hours and terminated by harvesting the reaction contents to a PEI coated GF/C filter plate (PerkinElmer). The plate was washed four times with cold 50 mM Tris-HCl, pH-7.5 wash buffer and dried at 50° C. for 2 hours or at 37° C. overnight. [3H] PGE2 bound to the protein was quantified by the addition of 25 μL of Microscint PS (PerkinElmer) and plate was read on MicroBeta2 liquid Scintillation and luminescence counter (PerkinElmer). Data was analyzed using GraphPad Prism 5 (GraphPad Software Inc., San Diego, Calif.) where non-specific binding was normalized to 0% specific binding of [3]PGE2 and vehicle control (DMSO) was normalized to 100% specific binding of [3]PGE2. Binding affinity of NCEs, Ki, was generated using One site—Fit Ki equation in GraphPad Prism 5.

[1] = target: T2, hEP4 (C6 glioma cells overexpressing hEP4) (Homo sapiens, UniProt P35408); test: hEP4 cell based assay (cAMP), inhibition of PGE2 induced cAMP, HTRF; settings: 1 μM compound, PGE2 at EC80
T2 construct: host or cells: C6 glioma cells overexpressing hEP4
Method: The functional assay for hEP4 activation and inhibition was carried out via the quantitative determination of agonist, PGE2, induced cAMP response using HTRF in a competitive immunoassay (Cisbio dynamic 2 kit). NCEs at varying concentrations were evaluated for inhibition of PGE2 induced increase in cAMP. Briefly, C6 glioma cells overexpressing hEP4 (Takeda) were cultured in DMEM (low glucose, pyruvate), 10% FBS (Gibco) and PenStep. The cells were harvested on the day of the assay, washed with HBSS+10 mM HEPES (pH 7.4)+0.1% BSA buffer and pre-incubated with varying concentrations of NCE. Each reaction contained 7000 cells and NCEs in HBSS+10 mM HEPES+0.1% BSA assay buffer along with PDE inhibitors IBMX and Ro 20-1724 (final concentration of each inhibitor […]). Following 15 min pre-incubation, the cells were treated with EC80 concentration of agonist PGE2 for 30 min to induce cAMP. Final volume of the assay was 6 μL and DMSO concentration was maintained at 1%. The reaction was terminated with the addition of cAMP labeled with the dye d2 in lysis buffer according to manufacturers' protocol. This was followed by the addition of the anti-cAMP antibody labeled with Cryptate according to the manufacturers' protocol. The reaction was incubated at room temperature in dark for 45 min and the plate was evaluated for fluorescence at 665 nm (FRET) and 620 nm (cryptate emission) on a Flexstation III microplate reader (Molecular Devices, Sunnyvale, Calif.) Ex max: 313 nm; Em1: 620 nm; Em2: 665 nm. Data was analyzed using GraphPad Prism 5 (GraphPad Software Inc., San Diego, Calif.) where cells treated with agonist (EC80) was normalized to 0% inhibition of hEP4 and cells treated with buffer (no agonist) was normalized to 100% inhibition of hEP4. IC50 of NCEs was generated using non-linear regression—Log(inhibitor) vs. response equation in GraphPad Prism 5.

T1 sequence (P35408 whole entry): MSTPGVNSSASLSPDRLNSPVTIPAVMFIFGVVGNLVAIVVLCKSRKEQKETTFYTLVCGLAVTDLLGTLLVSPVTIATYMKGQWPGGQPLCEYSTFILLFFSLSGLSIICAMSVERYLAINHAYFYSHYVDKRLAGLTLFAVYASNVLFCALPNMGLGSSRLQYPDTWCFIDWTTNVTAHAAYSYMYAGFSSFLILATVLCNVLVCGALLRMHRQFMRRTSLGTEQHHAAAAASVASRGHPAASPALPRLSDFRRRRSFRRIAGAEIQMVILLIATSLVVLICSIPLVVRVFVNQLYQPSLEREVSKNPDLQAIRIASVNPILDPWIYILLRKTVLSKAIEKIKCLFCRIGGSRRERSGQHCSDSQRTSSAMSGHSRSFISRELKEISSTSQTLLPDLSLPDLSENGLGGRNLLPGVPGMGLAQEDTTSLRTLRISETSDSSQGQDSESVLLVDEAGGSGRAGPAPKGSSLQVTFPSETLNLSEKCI
T2 sequence (P35408 whole entry): as above

| SMILES | inhibition at 0.3 µM (human EP4 receptor) [%] | inhibition at 1 µM [1] [%] |
| --- | --- | --- |
| C[C@H](Nc1nccc2c1N(Cc1ccc(C(F)(F)F)o1)CCO2)c1ccc(C(=O)O)cc1 [Example B31, 4-[(1S)-1-[[4-[[5-(trifluoromethyl)-2-furyl]methyl]-2,3-dihydropyrido[4,3-b][1,4]oxazin-5-yl]amino]ethyl]benzoic acid] | 92 | 98 |
| COc1cccc(CN2CCOc3ccnc(NC4(c5ccc(C(=O)O)cc5)CC4)c32)c1 [Example B23, 4-[1-[[4-[(3-methoxyphenyl)methyl]-2,3-dihydropyrido[4,3-b][1,4]oxazin-5-yl]amino]cyclopropyl]benzoic acid] | 100 | 74 |
| C[C@H](Nc1nccc2c1N(Cc1cccc(C(F)(F)F)c1)CCO2)c1ccc(C(=O)O)cc1 [Example B14, 4-[(1S)-1-[[4-[[3-(trifluoromethyl)phenyl]methyl]-2,3-dihydropyrido[4,3-b][1,4]oxazin-5-yl]amino]ethyl]benzoic acid] | 93 | 100 |
| C[C@@H](Nc1nccc2c1N(Cc1cccc(Cl)c1)CCO2)c1ccc(C(=O)O)cc1 [Example B33, 4-[(1R)-1-[[4-[(3-chlorophenyl)methyl]-2,3-dihydropyrido[4,3-b][1,4]oxazin-5-yl]amino]ethyl]benzoic acid] | 66 | 36 |
| C[C@H](Nc1nccc2c1N(Cc1ccc(F)cc1)CCO2)c1ccc(C(=O)O)cc1 [Example B9, 4-[(1S)-1-[[4-[(4-fluorophenyl)methyl]-2,3-dihydropyrido[4,3-b][1,4]oxazin-5-yl]amino]ethyl]benzoic acid] | 97 | 100 |
| C[C@H](Nc1nccc2c1N(Cc1ccc(Cl)cc1)CCO2)c1ccc(C(=O)O)cc1 [Example B7, 4-[(1S)-1-[[4-[(4-chlorophenyl)methyl]-2,3-dihydropyrido[4,3-b][1,4]oxazin-5-yl]amino]ethyl]benzoic acid] | 99 | 100 |
| CNC(=O)c1ccc([C@H](C)Nc2nccc3c2N(Cc2ccc(C(F)(F)F)cc2)CCO3)cc1 [Example D3, N-methyl-4-[(1S)-1-[[4-[[4-(trifluoromethyl)phenyl]methyl]-2,3-dihydropyrido[4,3-b][1,4]oxazin-5-yl]amino]ethyl]benzamide] | 73 | 84 |
| O=C(O)c1ccc(C2(Nc3nccc4c3N(Cc3ccc(C(F)(F)F)cc3)CCO4)CC2)cc1 [Example B20, 4-[1-[[4-[[4-(trifluoromethyl)phenyl]methyl]-2,3-dihydropyrido[4,3-b][1,4]oxazin-5-yl]amino]cyclopropyl]benzoic acid] | 92 | 92 |
| C[C@H](Nc1nccc2c1N(Cc1ccc(C(F)(F)F)cc1)CCC2)c1ccc(C(=O)O)cc1 [Example B37, 4-[(1S)-1-[[1-[[4-(trifluoromethyl)phenyl]methyl]-3,4-dihydro-2H-1,7-naphthyridin-8-yl]amino]ethyl]benzoic acid] | 97 | 97 |
| O=C(O)c1ccc(C2(Nc3nccc4c3N(Cc3cccc(Cl)c3)CCO4)CC2)cc1 [Example B24, 4-[1-[[4-[(3-chlorophenyl)methyl]-2,3-dihydropyrido[4,3-b][1,4]oxazin-5-yl]amino]cyclopropyl]benzoic acid acid] | 100 | 71 |
| C[C@H](Nc1nccc2c1N(Cc1ccccc1)CCO2)c1ccc(C(=O)O)cc1 [Example B1, 4-[(1S)-1-[(4-Benzyl-2,3-dihydropyrido[4,3-b][1,4]oxazin-5-yl)amino]ethyl]benzoic acid] | 93 | 100 |
| CCONC(=O)c1ccc([C@H](C)Nc2nccc3c2N(Cc2ccc(C(F)(F)F)cc2)CCO3)cc1 [Example D4, N-ethoxy-4-[(1S)-1-[[4-[[4-(trifluoromethyl)phenyl]methyl]-2,3-dihydropyrido[4,3-b][1,4]oxazin-5-yl]amino]ethyl]benzamide] | 92 | 93 |
| C[C@@H](Nc1nccc2c1N(Cc1ccc(C(F)(F)F)cc1)CCO2)c1ccc(C(=O)O)cc1 [Example B32, 4-[(1R)-1-[[4-[[4-(trifluoromethyl)phenyl]methyl]-2,3-dihydropyrido[4,3-b][1,4]oxazin-5-yl]amino]ethyl]benzoic acid] | 53 | 47 |
| Cc1cccc(CN2CCOc3ccnc(N[C@@H](C)c4ccc(C(=O)O)cc4)c32)c1 [Example B10, 4-[(1S)-1-[[4-(m-tolylmethyl)-2,3-dihydropyrido[4,3-b][1,4]oxazin-5-yl]amino]ethyl]benzoic acid] | 97 | 100 |
| COc1cccc(CN2CCOc3ccnc(N[C@@H](C)c4ccc(C(=O)O)cc4)c32)c1 [Example B12, 4-[(1S)-1-[[4-[(3-methoxyphenyl)methyl]-2,3-dihydropyrido[4,3-b][1,4]oxazin-5-yl]amino]ethyl]benzoic acid] | 98 | 100 |
| C[C@H](Nc1ncc(Cl)c2c1N(Cc1ccc(C(F)(F)F)cc1)CCO2)c1ccc(C(=O)O)cc1 [Example G1, 4-[(1S)-1-[[8-Chloro-4-[[4-(trifluoromethyl)phenyl]methyl]-2,3-dihydropyrido[4,3-b][1,4]oxazin-5-yl]amino]ethyl]benzoic acid] | 100 | 92 |
| Cc1ccc(CN2CCOc3ccnc(N[C@@H](C)c4ccc(C(=O)O)cc4)c32)cc1 [Example B11, 4-[(1S)-1-[[4-(p-tolylmethyl)-2,3-dihydropyrido[4,3-b][1,4]oxazin-5-yl]amino]ethyl]benzoic acid] | 95 | 100 |
| O=C(O)c1ccc(C2(Nc3nccc4c3N(Cc3cc(F)cc(F)c3)CCO4)CC2)cc1 [Example B17, 4-[1-[[4-[(3,5-difluorophenyl)methyl]-2,3-dihydropyrido[4,3-b][1,4]oxazin-5-yl]amino]cyclopropyl]benzoic acid] | 96 | 86 |
| C[C@H](Nc1nccc2c1N(Cc1ccc(C(F)(F)F)cc1)CCO2)c1ccc(C#N)cc1 [Example E1, 4-[(1S)-1-[[4-[[4-(Trifluoromethyl)phenyl]methyl]-2,3-dihydropyrido[4,3-b][1,4]oxazin-5-yl]amino]ethyl]benzonitrile] | 92 | 91 |
